Measured values as given in patent US7414049B2, “4-oxo-2,3,4,5-tetrahydro-benzo[b][1,4]diazepine derivatives” (Hoffmann-La Roche Inc., priority 2006, dated 2008).
In brackets after ≈: the same amount, converted by molar mass.

Experiments:
[1] = Microsome incubation, metabolic stability (human); type: in vitro ADME; conditions: for MAB (human): maximal achievable bioavailability = 1-E, extrapolated from intrinsic clearance; for microsomal CLint at 10 μM: pH 7.4, human liver microsomes 2.0 mg prot/mL, test compound 10 μM, 37° C., read-out: Intrinsic clearance (human)
Experimental: The compounds of formula I of the present invention are further characterized by high metabolic stability. This parameter is a prerequisite for good bioavailability, which is necessary to obtain medicaments with acceptable in-vivo activity. The metabolic stability has been tested by the following method:
Incubation mixtures consisted of liver microsomes (rat 1.0 mg prot/mL or human 2.0 mg prot/mL), test compound 10 μM, MgCl2 (3.3 mM), and an NADPH regenerating system consisting of glucose-6-phosphate dehydrogenase, NADPH and glucose-6-phosphate (equivalent to 1 mM NADPH) in a total volume of 1.0 mL of potassium phosphate buffer 100 mM pH 7.4. Reactions were initiated by addition of the NADPH regenerating system at 37° C. At the time of 1, 5, 9, 13, 17, 21, 25, and 29 min a 5 μL aliquot was directly analysed on a HPLC-MS/MS system consisting of a HP 1100 quaternary pump with degasser and a PE-Sciex API-2000 MS/MS spectrometer. The analytical column was a Waters Symmetry Shield RP8 (2.1*50 mm with a […] particle size). A polarity non linear gradient from phase A (MeOH/Ac. Form. 1% 20/80) to phase B (MeOH) was applied for a total run time of 2 minutes at a flow rate of 0.25 mL/min. The PE-Sciex API-2000 MS/MS spectrometer was used for detection of the parent compound. In vivo metabolic clearance was predicted according to published procedures [Houston, Biochem. Pharmacol. 47:1469-1479 (1994)]. In brief, the intrinsic clearance (Clearance, see table below) is calculated from the measured in vitro half-life taking into account incubation volume and microsomal protein used for the in vitro incubation. The intrinsic clearance is expressed in terms of μl/min/mg microsomal protein. For in vivo extrapolations, the hepatic extraction ratio (E) was calculated. Here it is reported the % MAB value which is equal to 1-E. The MAB (maximal achievable bioavailability) values express the maximal bioavailability that one can achieve with the given clearance values.

[2] = THESA assay, thermodynamic solubility; type: physicochemical; conditions: 22.5 °C, aqueous buffer, thermodynamic from solid; 50 mM phosphate buffer, room temperature (22.5±1° C.)
Experimental: In addition, the compounds of the present invention have been tested in a THESA assay for determination of the thermodynamic solubility.
Approximately 2 mg of each compound was added in excess to a 50 mM phosphate buffer, at room temperature (22.5±1° C.). Each sample was placed in a microanalysis tube, which was sonicated for 1 h and agitated for 2 h. All suspensions were left overnight. At the next day all pHs were measured with a pH-meter and the samples filtered with a micronic filterplate (MSGVN2250) to separate the solid material from the solution. Then, all solutions were analyzed by HPLC. The calibration line was established by different concentrations of the compound in DMSO. From this regression equation the solubility of the compound was determined.

[3] = Microsome incubation, metabolic stability (mouse); type: in vitro ADME; conditions: for MAB (mouse): maximal achievable bioavailability = 1-E, extrapolated from intrinsic clearance; for microsomal CLint at 10 μM: pH 7.4, liver microsomes, test compound 10 μM, 37° C., read-out: Intrinsic clearance (mouse)

| MAB (human) [1] | microsomal CLint at 10 μM [1] | solubility thermodynamic [2] | MAB (mouse) [3] | microsomal CLint at 10 μM [3] | Compound |
| --- | --- | --- | --- | --- | --- |
| 45.5% | 18.6 µL/min/mg | 67 µg/mL (≈ 129 µM) | 10.8% | 262 µL/min/mg | CC(O)(C(=O)NCC(F)(F)C(F)(F)F)C(=O)N[C@H]1CN(CCC(F)(F)F)c2ccccc2NC1=O (single isomer, unassigned) [Example 5, (R or S)-2-Hydroxy-2-methyl-N-[(S)-4-oxo-1-(3,3,3-trifluoro-propyl)-2,3,4,5-tetrahydro-1H-benzo[b][1,4]diazepin-3-yl]-N′-(2,2,3,3,3-pentafluoro-propyl)-malonamide and (S or R)-2-Hydroxy-2-methyl-N-[(S)-4-oxo-1-(3,3,3-trifluoro-propyl)-2,3,4,5-tetrahydro-1H-benzo[b][1,4]diazepin-3-yl]-N′-(2,2,3,3,3-pentafluoro-propyl)-malonamide] |
| 53.3% | 13.6 µL/min/mg | 5180 µg/mL (≈ 9320 µM) | 72.1% | 12.3 µL/min/mg | CC(O)(C(=O)NCC(F)(F)C(F)(F)F)C(=O)N[C@H]1CN(C(=O)OCCO)c2ccccc2N(CCO)C1=O (single isomer, unassigned) [Example 14, (S)-5-(2-Hydroxy-ethyl)-3-[(S or R)-2-hydroxy-2-(2,2,3,3,3-pentafluoro-propylcarbamoyl)-propionylamino]-4-oxo-2,3,4,5-tetrahydro-benzo[b][1,4]diazepine-1-carboxylic acid 2-hydroxy-ethyl ester] |
| 84.3% | 2.9 µL/min/mg | 3230 µg/mL (≈ 5430 µM) | 97.2% | 0.9 µL/min/mg | CC(O)(C(=O)NCC(F)(F)C(F)(F)F)C(=O)N[C@H]1CN(C(=O)OCC(F)(F)F)c2ccccc2N(CCO)C1=O (single isomer, unassigned) [Example 12, (S)-5-(2-Hydroxy-ethyl)-3-[(S or R)-2-hydroxy-2-(2,2,3,3,3-pentafluoro-propylcarbamoyl) -propionylamino]-4-oxo-2,3,4,5-tetrahydro-benzo[b][1,4]diazepine-1-carboxylic acid 2,2,2-trifluoro-ethyl ester] |
| 99.7% | 0.05 µL/min/mg | 77 µg/mL (≈ 131 µM) | 58.5% | 22.4 µL/min/mg | CC(O)(C(=O)NCC(F)(F)C(F)(F)F)C(=O)N[C@H]1CN(C(=O)OCC(F)(F)F)c2cc(F)c(F)cc2NC1=O (single isomer, unassigned) [Example 1, (S)-7,8-Difluoro-3-[(R or S)-2-hydroxy-2-(2,2,3,3,3-pentafluoro-propylcarbamoyl)-propionylamino]-4-oxo-2,3,4,5-tetrahydro-benzo[b][1,4]diazepine-1-carboxylic acid 2,2,2-trifluoro-ethyl ester and (S)-7,8-Difluoro-3-[(S or R)-2-hydroxy-2-(2,2,3,3,3-pentafluoro-propylcarbamoyl)-propionylamino]-4-oxo-2,3,4,5-tetrahydro-benzo[b][1,4]diazepine-1-carboxylic acid 2,2,2-trifluoro-ethyl ester] |
